Results reported in US12291529B2, “Heterocyclic GLP-1 agonists” (Gasherbrum Bio, Inc., priority 2023, dated 2025).

Tests used:
[1] = Caco-2 permeability / efflux study; format: in vitro ADME; settings: human; for Papp at 2 h, 10 μM: Caco-2, pH 7.4, 10 μM, 37° C., pH 7.4, 0.5% BSA, read-out: Caco-2 Perm; for efflux ratio at 2 h, 10 μM: Caco-2, pH 7.4, Caco-2 efflux ratio
Description: Incubations with Caco-2 cell monolayers were performed in duplicate in a 96-well Transwell plate. Transport buffer solution (HBSS, 10 mM HEPES, pH 7.4, with 0.5% BSA) containing test article (10 μM), and either the control compounds metoprolol (10 μM), cimetidine (10 μM) and erythromycin (10 μM), was added to appropriate donor wells of the apical or basolateral plate. The transport buffer with DMSO was added to appropriate wells of receiver wells. Following incubation at 37° C. for 2 hours, the cell plates were removed and 50 μL samples from both apical and basolateral sides were transferred into new 96-well plates. Subsequently, 200 μL of acetonitrile containing internal standard was added to all samples to precipitate protein prior to analysis by UPLC-MS/MS. Lucifer yellow was used as a marker to confirm the integrity of the cell monolayers after 2 hours incubation.

GLP-1 Receptor = GLP-1 Receptor (Homo sapiens, UniProt P43220); test: GLP-1R agonist cAMP stimulation assay (HEK293/GLP1R/CRE-LUC cells, Cisbio cAMP dynamic 2 kit); format: cell-based
Sequence of GLP-1 Receptor (P43220 24-463, species assumed): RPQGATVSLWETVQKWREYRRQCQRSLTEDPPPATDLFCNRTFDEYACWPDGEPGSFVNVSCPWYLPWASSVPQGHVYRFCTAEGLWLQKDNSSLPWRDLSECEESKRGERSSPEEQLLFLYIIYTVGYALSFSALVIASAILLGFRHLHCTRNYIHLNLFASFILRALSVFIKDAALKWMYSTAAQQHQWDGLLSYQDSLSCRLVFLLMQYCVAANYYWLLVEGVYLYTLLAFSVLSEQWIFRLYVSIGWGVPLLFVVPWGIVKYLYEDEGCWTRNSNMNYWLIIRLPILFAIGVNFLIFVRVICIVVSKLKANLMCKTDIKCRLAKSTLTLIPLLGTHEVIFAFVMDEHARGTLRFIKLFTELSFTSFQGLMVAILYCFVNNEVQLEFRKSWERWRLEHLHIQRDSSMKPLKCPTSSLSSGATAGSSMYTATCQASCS
In short: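 HEK293 cells stably expressing human GLP-1R with CRE-Luc reporter, 1000 cells/well in DPBS with 0.5 mM IBMX and BSA. Cells treated with compound (½-log dilutions) for 30 min at 37 °C. cAMP read by HTRF at 665/615 nm; % activity relative to vehicle and maximal control.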

[2] = Table 3, HEK293/GLP1R/CRE-LUC cells, 30 min

Row | SMILES | Papp at 2 h, 10 μM [1] [×10⁻⁶ cm/s] | efflux ratio at 2 h, 10 μM [1] | EC50 (GLP-1 Receptor; [2]) [nM] | EC50 (GLP-1 Receptor; Table 4) [nM]
1 | CCS(=O)(=NC)c1ccc(-n2ccn(-c3c4c(nn3-c3cc(C)c(F)c(C)c3)CCN(C(=O)c3cc5cc(C6CCOCC6)ccc5n3[C@@]3(c5noc(=O)[nH]5)C[C@@H]3C)[C@H]4C)c2=O)c(Cl)c1 (single isomer, unassigned) [Compound 151] | 0.3 | 36.8 | 0.072 | 0.072
2 | CN=S(=O)(c1ccc(-n2ccn(-c3c4c(nn3-c3cc(C)c(F)c(C)c3)CCN(C(=O)c3cc5cc([C@H]6CCOC(C)(C)C6)ccc5n3[C@@]3(c5noc(=O)[nH]5)C[C@@H]3C)[C@H]4C)c2=O)cc1NC)C1CC1 (single isomer, unassigned) [Compound 218] | 0.09 | 20.7 | 0.083 | 0.059
3 | Cc1cc(-n2nc3c(c2-n2ccn(-c4ccc(S(=N)(=O)C5CCC5)cc4F)c2=O)[C@H](C)N(C(=O)c2cc4cc([C@H]5CCOC(C)(C)C5)ccc4n2[C@@]2(c4noc(=O)[nH]4)C[C@@H]2C)CC3)cc(C)c1F (single isomer, unassigned) [Compound 183] | 0.19 | 45 | 0.001 | 0.011
4 | Cc1cc(-n2nc3c(c2-n2ccn(-c4ccc(S(=N)(=O)C5CCC5)cc4F)c2=O)[C@H](C)N(C(=O)c2cc4cc(C5CCOCC5)ccc4n2[C@@]2(c4noc(=O)[nH]4)C[C@@H]2C)CC3)cc(C)c1F (single isomer, unassigned) [Compound 168] | 0.21 | 50 | 0.011 | 0.011
5 | Cc1cc(-n2nc3c(c2-n2ccn(-c4ccc5c(c4Cl)CN=S5(C)=O)c2=O)[C@H](C)N(C(=O)c2cc4cc([C@H]5CCOC(C)(C)C5)ccc4n2[C@@]2(c4noc(=O)[nH]4)C[C@@H]2C)CC3)cc(C)c1F (single isomer, unassigned) [Compound 201] | – | – | 0.011 | –
6 | C[C@H]1c2c(nn(-c3ccc(F)c(C4CC4)c3)c2-n2ccn(-c3ccc(S(C)(=N)=O)cc3)c2=O)CCN1C(=O)c1cc2cc(C3CCOCC3)ccc2n1[C@@]1(c2noc(=O)[nH]2)C[C@@H]1C (some centres unmarked) [Compound 118] | – | – | 0.04 | –
7 | Cc1cc(-n2nc3c(c2-n2ccn(-c4cc5c(cc4F)S(C)(=O)=NC5)c2=O)[C@H](C)N(C(=O)c2cc4cc([C@H]5CCOC(C)(C)C5)ccc4n2[C@@]2(c4noc(=O)[nH]4)C[C@@H]2C)CC3)cc(C)c1F (single isomer, unassigned) [Compound 199] | – | – | 0.01 | –
8 | CC1=Cc2cc(-n3ccn(-c4c5c(nn4-c4cc(C)c(F)c(C)c4)CCN(C(=O)c4cc6cc([C@H]7CCOC(C)(C)C7)ccc6n4[C@@]4(c6noc(=O)[nH]6)C[C@@H]4C)[C@H]5C)c3=O)ccc2S(C)(=O)=N1 (single isomer, unassigned) [Compound 207] | – | – | 0.02 | –
9 | Cc1nnc(Cn2c(C(=O)N3CCc4nn(-c5cc(C)c(F)c(C)c5)c(-n5ccn(-c6ccc(S7(=O)=NCCC7)cc6)c5=O)c4[C@@H]3C)cc3cc(C4CCOCC4)ncc32)o1 (single isomer, unassigned) [Compound 159] | – | – | 5.9 | –
10 | Cc1cc(-n2nc3c(c2-n2ccn(-c4ccc(S(C)(=N)=O)cc4)c2=O)[C@H](C)N(C(=O)c2cc4cc(C5CCOCC5)ccc4n2[C@@]2(c4noc(=O)[nH]4)C[C@@H]2C)CC3)cc(C)c1F (single isomer, unassigned) [Compound 114] | – | – | 0.017 | –
11 | Cc1cc(-n2nc3c(c2-n2ccn(-c4ccc(C5CCS(=N)(=O)CC5)cc4)c2=O)[C@H](C)N(C(=O)c2cc4cc(C5CCOCC5)ccc4n2[C@@]2(c4noc(=O)[nH]4)C[C@@H]2C)CC3)cc(C)c1F (single isomer, unassigned) [Compound 182] | – | – | 0.077 | –
12 | CCN=S(=O)(c1ccc(-n2ccn(-c3c4c(nn3-c3cc(C)c(F)c(C)c3)CCN(C(=O)c3cc5cc([C@H]6CCOC(C)(C)C6)ccc5n3[C@@]3(c5noc(=O)[nH]5)C[C@@H]3C)[C@H]4C)c2=O)c(F)c1)C1CC1 (single isomer, unassigned) [Compound 208] | – | – | 0.11 | –
13 | Cc1cc(-n2nc3c(c2-n2ccn(-c4ccc5c(c4)CCS5(=N)=O)c2=O)[C@H](C)N(C(=O)c2cc4cc(C5CCOCC5)ccc4n2[C@@]2(c4noc(=O)[nH]4)C[C@@H]2C)CC3)cc(C)c1F (stereo partly drawn) [Compound 101, 3-[(1S,2S)-1-(2-{[(4S)-3-[3-(1-azanylidene-l-oxo-2,3-dihydro-1λ^6-benzo[b]thiophen-5-yl)-2-oxoimidazol-1-yl]-2-(4-fluoro-3,5-dimethylphenyl)-4-methyl-4,5,6,7-tetrahydropyrazolo[4,3-c]pyridin-5-yl]carbonyl}-5-(3,4,5,6-tetrahydro-2H-pyran-4-yl)indol-1-yl)-2-methylcyclopropyl]-4H,5H-1,2,4-oxadiazol-5-one] | – | – | 0.067 | –
14 | Cc1cc(-n2nc3c(c2-n2ccn(-c4ccc5c(c4F)CCN=S5(C)=O)c2=O)[C@H](C)N(C(=O)c2cc4cc([C@H]5CCOC(C)(C)C5)ccc4n2[C@@]2(c4noc(=O)[nH]4)C[C@@H]2C)CC3)cc(C)c1F (single isomer, unassigned) [Compound 186] | – | – | 0.0047 | –
15 | CCS(=N)(=O)c1ccc(-n2ccn(-c3c4c(nn3-c3ccc(F)c(C5CC5)c3)CCN(C(=O)c3cc5cc(C6CCOCC6)ccc5n3[C@@]3(c5noc(=O)[nH]5)C[C@@H]3C)[C@H]4C)c2=O)c(F)c1 (single isomer, unassigned) [Compound 167] | – | – | 0.12 | –
16 | Cc1cc(-n2nc3c(c2-n2ccn(-c4ccc(S(=N)(=O)C5CC5)cc4)c2=O)[C@H](C)N(C(=O)c2cc4cc(C5CCOCC5)ccc4n2[C@@]2(c4noc(=O)[nH]4)C[C@@H]2C)CC3)cc(C)c1F (single isomer, unassigned) [Compound 135] | – | – | 0.001 | –
17 | Cc1cc(-n2nc3c(c2-n2ccn(-c4ccc5c(c4F)CCN=S5(=O)C4CC4)c2=O)[C@H](C)N(C(=O)c2cc4cc([C@H]5CCOC(C)(C)C5)ccc4n2[C@@]2(c4noc(=O)[nH]4)C[C@@H]2C)CC3)cc(C)c1F (single isomer, unassigned) [Compound 197] | – | – | 0.018 | –
18 | CCS(=N)(=O)c1ccc(-n2ccn(-c3c4c(nn3-c3cc(C)c(F)c(C)c3)CCN(C(=O)c3cc5cc(C6CCOCC6)ccc5n3[C@@]3(c5noc(=O)[nH]5)C[C@@H]3C)[C@H]4C)c2=O)c(Cl)c1 (single isomer, unassigned) [Compound 137] | – | – | 0.15 | –
19 | Cc1cc(-n2nc3c(c2-n2ccn(-c4ccc(S(=N)(=O)C5CC5)cc4)c2=O)[C@H](C)N(C(=O)c2cc4cc(C5CCOCC5)ccc4n2[C@@]2(c4noc(=O)[nH]4)C[C@@H]2C)CC3)cc(C)c1F (single isomer, unassigned) [Compound 134] | – | – | 0.0051 | –
20 | Cc1cc(-n2nc3c(c2-n2ccn(-c4ccc(OC5CCS(=N)(=O)CC5)cc4)c2=O)[C@H](C)N(C(=O)c2cc4cc(C5CCOCC5)ccc4n2[C@@]2(c4noc(=O)[nH]4)C[C@@H]2C)CC3)cc(C)c1F (stereo partly drawn) [Compound 226, 3-((1S,2S)-1-(2-((S)-2-(4-fluoro-3,5-dimethylphenyl)-3-(3-(4-((1-imino-1-oxidohexahydro-1λ^6-thiopyran-4-yl)oxy)phenyl)-2-oxo-2,3-dihydro-1H-imidazol-1-yl)-4-methyl-4,5,6,7-tetrahydro-2H-pyrazolo[4,3-c]pyridine-5-carbonyl)-5-(tetrahydro-2H-pyran-4-yl)-1H-indol-1-yl)-2-methylcyclopropyl)-1,2,4-oxadiazol-5(4H)-one] | – | – | 0.025 | –
21 | CCS(=O)(=NC)c1ccc(-n2ccn(-c3c4c(nn3-c3cc(C)c(F)c(C)c3)CCN(C(=O)c3cc5cc(C6CCOCC6)ccc5n3Cc3ccc(C)nc3)[C@H]4C)c2=O)c(F)c1 (single isomer, unassigned) [Compound 171] | – | – | 8.8 | –
22 | Cc1cc(-n2nc3c(c2-n2ccn(-c4ccc(S(C)(=N)=O)cc4)c2=O)[C@H](C)N(C(=O)c2cc4cc(C5CCOCC5)ccc4n2[C@@]2(c4noc(=O)[nH]4)C[C@@H]2C)CC3)cc(C)c1F (single isomer, unassigned) [Compound 115] | – | – | 0.049 | –
23 | CN=S1(=O)CCC(Oc2ccc(-n3ccn(-c4c5c(nn4-c4cc(C)c(F)c(C)c4)CCN(C(=O)c4cc6cc([C@H]7CCOC(C)(C)C7)ccc6n4[C@@]4(c6noc(=O)[nH]6)C[C@@H]4C)[C@H]5C)c3=O)cc2C2CC2)CC1 (single isomer, unassigned) [Compound 236] | – | – | 0.053 | –
24 | CCS(=N)(=O)c1ccc(-n2ccn(-c3c4c(nn3-c3cc(C)c(F)c(C)c3)CCN(C(=O)c3cc5cc(C6CCOCC6)ccc5n3[C@@]3(c5noc(=O)[nH]5)C[C@@H]3C)[C@H]4C)c2=O)c(Cl)c1 (single isomer, unassigned) [Compound 136] | – | – | 0.047 | –
25 | CN=S(=O)(c1ccc(-n2ccn(-c3c4c(nn3-c3cc(C)c(F)c(C)c3)CCN(C(=O)c3cc5cc([C@H]6CCOC(C)(C)C6)ccc5n3[C@@]3(c5noc(=O)[nH]5)C[C@@H]3C)[C@H]4C)c2=O)c(Cl)c1)C1CC1 (single isomer, unassigned) [Compound 204] | – | – | 0.039 | –
26 | Cc1cc(-n2ccn(-c3c4c(nn3-c3cc(C)c(F)c(C)c3)CCN(C(=O)c3cc5cc(C6CCOCC6)ccc5n3[C@@]3(c5noc(=O)[nH]5)C[C@@H]3C)[C@H]4C)c2=O)ccc1S(C)(=N)=O (some centres unmarked) [Compound 124] | – | – | 0.01 | –
